Laboratory results taken from ChEMBL document CHEMBL1143264 (Bioorg Med Chem Lett, 2009).
pKi: −log10 of the molar value.

Legend:
Format in all cases: cell membranes
[1] = biological target: Neuronal acetylcholine receptor; alpha4/beta2 (Rattus norvegicus, UniProt P09483+P12390); assay: Displacement of [3H]epibatidine from alpha-4-beta-2 nAchR in rat brain cortex membrane
[2] = biological target: Neuronal acetylcholine receptor subunit alpha-7 (Rattus norvegicus, UniProt Q05941); assay: Displacement of [125I]alpha-Bungarotoxin from alpha-7 nAchR in rat brain cortex membrane
Sequence of Neuronal acetylcholine receptor subunit alpha-7 (Q05941 whole entry): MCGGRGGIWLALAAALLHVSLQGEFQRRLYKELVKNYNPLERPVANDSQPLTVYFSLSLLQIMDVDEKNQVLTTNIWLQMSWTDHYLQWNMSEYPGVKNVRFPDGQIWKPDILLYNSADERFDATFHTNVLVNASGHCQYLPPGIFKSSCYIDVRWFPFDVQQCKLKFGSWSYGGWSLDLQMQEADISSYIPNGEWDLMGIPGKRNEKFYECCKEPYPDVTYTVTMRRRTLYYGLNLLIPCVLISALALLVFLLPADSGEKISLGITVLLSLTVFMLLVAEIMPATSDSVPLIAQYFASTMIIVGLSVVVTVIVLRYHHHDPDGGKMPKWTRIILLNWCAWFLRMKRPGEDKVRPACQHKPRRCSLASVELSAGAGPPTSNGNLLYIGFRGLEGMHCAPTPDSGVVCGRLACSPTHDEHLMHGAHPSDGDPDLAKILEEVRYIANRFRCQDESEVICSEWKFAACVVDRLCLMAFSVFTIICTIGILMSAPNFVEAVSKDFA

[3] = biological target: T1, Adrenergic receptor alpha-2 (Rattus norvegicus, UniProt P22086+P19328+P22909); assay: Displacement of [3H]RS 79948-197 from alpha-2 adrenergic receptor in rat brain cortex membrane
T1 sequence (P22086 whole entry): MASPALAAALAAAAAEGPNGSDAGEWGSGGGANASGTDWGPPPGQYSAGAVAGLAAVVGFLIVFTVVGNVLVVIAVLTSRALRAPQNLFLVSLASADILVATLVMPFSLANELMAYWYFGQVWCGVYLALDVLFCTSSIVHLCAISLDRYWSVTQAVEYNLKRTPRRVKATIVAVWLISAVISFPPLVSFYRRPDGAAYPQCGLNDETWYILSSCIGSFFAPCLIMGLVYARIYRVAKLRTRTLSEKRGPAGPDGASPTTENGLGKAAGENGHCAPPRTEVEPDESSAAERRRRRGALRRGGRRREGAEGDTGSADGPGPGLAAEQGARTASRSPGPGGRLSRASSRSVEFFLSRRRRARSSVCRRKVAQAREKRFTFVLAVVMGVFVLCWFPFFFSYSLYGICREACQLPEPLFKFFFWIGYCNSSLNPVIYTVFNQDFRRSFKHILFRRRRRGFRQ
T1 sequence (P19328 whole entry): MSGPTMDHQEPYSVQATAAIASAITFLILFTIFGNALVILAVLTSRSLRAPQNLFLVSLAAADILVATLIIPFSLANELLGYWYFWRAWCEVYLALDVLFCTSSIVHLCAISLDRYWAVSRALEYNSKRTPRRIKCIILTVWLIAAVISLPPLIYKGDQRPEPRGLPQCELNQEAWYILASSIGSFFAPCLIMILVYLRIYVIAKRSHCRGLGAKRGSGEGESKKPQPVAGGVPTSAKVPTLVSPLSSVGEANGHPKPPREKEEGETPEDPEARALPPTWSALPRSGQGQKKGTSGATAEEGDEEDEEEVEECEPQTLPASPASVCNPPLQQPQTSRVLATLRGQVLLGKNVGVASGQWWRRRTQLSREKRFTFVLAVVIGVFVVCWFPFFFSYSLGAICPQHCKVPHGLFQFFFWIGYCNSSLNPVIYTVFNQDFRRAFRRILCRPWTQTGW
T1 sequence (P22909 whole entry): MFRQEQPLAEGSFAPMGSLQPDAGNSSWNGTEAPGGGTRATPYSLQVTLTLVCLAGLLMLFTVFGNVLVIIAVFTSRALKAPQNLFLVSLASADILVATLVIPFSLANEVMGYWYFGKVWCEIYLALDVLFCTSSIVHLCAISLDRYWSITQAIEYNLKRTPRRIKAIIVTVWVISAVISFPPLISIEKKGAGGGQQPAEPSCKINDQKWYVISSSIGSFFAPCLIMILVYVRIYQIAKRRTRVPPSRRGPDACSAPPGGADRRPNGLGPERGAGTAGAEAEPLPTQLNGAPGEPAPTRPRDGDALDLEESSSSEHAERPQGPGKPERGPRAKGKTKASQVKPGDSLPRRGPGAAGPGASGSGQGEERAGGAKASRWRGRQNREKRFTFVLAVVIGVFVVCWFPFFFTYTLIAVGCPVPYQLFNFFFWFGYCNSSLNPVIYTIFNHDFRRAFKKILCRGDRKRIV

Sequence of Neuronal acetylcholine receptor; alpha4/beta2 (P09483 whole entry): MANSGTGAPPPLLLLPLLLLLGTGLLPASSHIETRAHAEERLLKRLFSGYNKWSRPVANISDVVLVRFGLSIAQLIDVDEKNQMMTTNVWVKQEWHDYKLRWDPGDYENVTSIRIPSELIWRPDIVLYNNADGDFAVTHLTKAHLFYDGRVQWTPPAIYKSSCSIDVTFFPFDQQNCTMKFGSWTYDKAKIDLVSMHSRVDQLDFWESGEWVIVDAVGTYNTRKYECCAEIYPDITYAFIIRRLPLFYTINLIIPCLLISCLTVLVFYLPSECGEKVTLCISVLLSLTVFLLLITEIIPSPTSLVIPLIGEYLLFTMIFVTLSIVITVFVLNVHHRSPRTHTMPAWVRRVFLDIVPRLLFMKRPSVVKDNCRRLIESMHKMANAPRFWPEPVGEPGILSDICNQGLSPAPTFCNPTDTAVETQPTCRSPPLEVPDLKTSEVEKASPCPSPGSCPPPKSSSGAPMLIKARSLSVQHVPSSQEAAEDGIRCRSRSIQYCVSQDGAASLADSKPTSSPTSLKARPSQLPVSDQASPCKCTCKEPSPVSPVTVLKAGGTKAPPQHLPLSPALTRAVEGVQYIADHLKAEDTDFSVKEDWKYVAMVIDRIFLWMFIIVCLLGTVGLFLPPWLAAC
Sequence of Neuronal acetylcholine receptor; alpha4/beta2 (P12390 whole entry): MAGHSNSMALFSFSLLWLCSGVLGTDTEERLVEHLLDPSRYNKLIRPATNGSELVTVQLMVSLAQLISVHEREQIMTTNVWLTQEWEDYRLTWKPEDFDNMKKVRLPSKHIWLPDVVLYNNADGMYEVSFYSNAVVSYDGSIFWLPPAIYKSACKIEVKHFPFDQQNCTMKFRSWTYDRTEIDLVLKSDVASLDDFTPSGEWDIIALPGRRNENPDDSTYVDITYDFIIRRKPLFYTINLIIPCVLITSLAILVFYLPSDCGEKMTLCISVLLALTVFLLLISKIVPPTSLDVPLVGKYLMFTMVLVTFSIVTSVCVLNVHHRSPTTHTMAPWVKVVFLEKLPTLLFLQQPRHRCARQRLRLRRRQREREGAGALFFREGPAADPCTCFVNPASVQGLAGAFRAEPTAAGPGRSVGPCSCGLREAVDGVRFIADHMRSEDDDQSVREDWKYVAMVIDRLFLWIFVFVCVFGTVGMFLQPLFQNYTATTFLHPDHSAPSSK

Structure (SMILES) | pKi [1] | pKi [2] | Ki [3] [µM]
CN1CCC[C@H]1[C@H]1CNC(=O)O1 | 4.46 | 4.00 | 
CN1CCC[C@@H]1[C@@H]1CNC(=O)O1 | 4.43 | 4.37 | 
CN1CCC[C@H]1[C@H]1COc2ccccc2O1.Cl | 6.33 | 4.84 | 1.67
CN1CCC[C@@H]1[C@@H]1COc2ccccc2O1.Cl | 4.36 | 4.83 | 6.67
Cl.c1ccc2c(c1)OC[C@@H]([C@H]1CCCN1)O2 | 4.94 | 4.57 | 6.33
CN1CCC[C@@H]1[C@H]1CNC(=O)O1 | 4.40 | 4.00 | 
Cl.c1ccc2c(c1)OC[C@H]([C@H]1CCCN1)O2 | 4.06 | 4.83 | 14
CN1CCC[C@H]1[C@@H]1COc2ccccc2O1 | 6.59 | 4.68 | 
CN1CCC[C@@H]1[C@H]1COc2ccccc2O1 | 4.90 | 4.46 | 
Cl.c1ccc2c(c1)OC[C@H]([C@@H]1CCCN1)O2 | 4.84 | 4.49 | 0.64
CN1CCC[C@H]1[C@@H]1CNC(=O)O1 | 5.57 | 4.68 | 
Cl.c1ccc2c(c1)OC[C@@H]([C@@H]1CCCN1)O2 | 5.68 | 4.44 | 1.35
